Results published in US8173133B2, “Acyl pseudodipeptides which carry a functionalized auxiliary arm” (OM Pharma, priority 1999, dated 2012).

Tested on: MxA protein
Assay: MxA protein induction in dendritic cells (Western blot)
Type: cell-based, human
Settings: 1 μg/ml; after 24 hr and 48 hours; FIGS. 77, 78
Experimental: The ability of products of the invention to induce production of antiviral MxA protein by predendritic cells has been assessed. MxA production by cells was measured after an SDS-PAGE electrophoretic separation by a Western Blot assay
Extraction and analysis of protein was conducted as follows: cells were harvested, then washed 3 times with PBS (phosphate buffered saline) and lyzed with a 100 Mm Tris-HCl buffer, 150 mM NaCl, 5 mM EDTA, 1% Triton-100 containing 1 mM PMSF (phenylmethylsulphonyl fluoride) and 1 μ/ml of pepstatin as protease inhibitors. Lysis was carried out at a density of 10^6 cells for 100 μl of (5×) buffer containing 60 mM Tris-HCl (pH 6.8), 10% glycerol, 2% SDS, 14.4 mM 2-mercaptoethanol and 0.1% bromophenol). Samples were heated up to 95° C. for 5 min. in sealed Eppendorf tubes. Electrophoresis was performed on a 10 cm×10 cm 12% acrylamide minigel by running a sample having the same number of cells. Migration was effected with the following buffer: 25 mM Tris, 192 mM glycine, 0.1% SDS, pH 8.3. […]
Non specific bonding sites on the membrane were blocked with 5% skimmed milk in TBS (10 mM Tris-HCl, 150 Mm NaCl, pH 7.4) and allowing to stand for 1 hour at room temperature. […] In this system, HRP catalyzes a luminol-mediated chemiluminescent reaction which can be detected on a photographic film. […]

## CCCCCCCCCCCC(=O)O[C@H](CCCCCCCCCCC)CC(=O)NC(CCOP(=O)(O)O)C(=O)NCCCC(COC(=O)CCCCC(O)CO)NC(=O)C[C@H](O)CCCCCCCCCCC (stereo partly drawn) [OM-197-FV6, 3-[(R)-dodecanoyloxytetradecanoylamino]-4oxo-5-aza-9-[(R)-3-hydroxytetradecanoylamino]-decan-1,10-diol 1-dihydrogenphate 10-(6,7-dihydroxyheptanoate)]
  production of MxA protein: significant rise
